# Data as given in the supplement of paper PMC10331698.
# ± gives the standard deviation of the averaged measurements.
# What was measured:
# Experiment in all cases: level (log10 ratio to DMSO vehicle control); higher = higher biomarker level / cell amount than vehicle control
# [1] = compound: O=C(O)C(F)(F)C(F)(F)C(F)(F)C(F)(F)C(F)(F)C(F)(F)C(F)(F)C(F)(F)C(F)(F)C(F)F [11-H-Perfluoroundecanoic acid]; conditions: in DMSO
# Procedure: (§1)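 BioMAP Diversity Plus panel of 12 human primary cell co-culture systems (3C, 4H, LPS, SAg, BT, BF4T, BE3C, CASM3C, HDF3CGF, KF3CT, MyoF, Mphg). Compounds were added 1 h before stimulation and left for 24 h (MyoF 48 h; BT 72 h for soluble read-outs or 6 d for IgG). Biomarkers were read by ELISA, cytotoxicity by SRB, PBMC viability and proliferation by Alamar Blue. Each well value was divided by the mean of 8 DMSO control wells on the same plate and log10 transformed; duplicate blinded samples were tested at 4 concentrations.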
# [2] = compound: O=S(=O)(O)C(F)(F)C(F)(F)C(F)(F)C(F)(F)C(F)(F)C(F)(F)C(F)(F)C(F)(F)C(F)(F)C(F)(F)F [Sodium perfluorodecanesulfonate]; conditions: in DMSO
# Procedure: as §1
# [3] = compound: FC(F)(F)C(F)(F)C(F)(F)C(F)(F)C(F)(F)C(F)(F)CC1CO1 [3-(Perfluorohexyl)-1,2-epoxypropane]; conditions: in DMSO
# Procedure: as §1
# [4] = compound: C=C(C)C(=O)OCCC(F)(F)C(F)(F)C(F)(F)C(F)(F)C(F)(F)C(F)(F)F [6:2 Fluorotelomer methacrylate]; conditions: in DMSO
# Procedure: as §1
# [5] = compound: NC(=O)C(F)(F)C(F)(F)C(F)(F)C(F)(F)C(N)=O [Octafluoroadipamide]; conditions: in DMSO
# Procedure: as §1
# [6] = compound: O=S(=O)(Cl)C(F)(F)C(F)(F)C(F)(F)C(F)(F)C(F)(F)C(F)(F)C(F)(F)C(F)(F)F [Perfluoro-1-octanesulfonyl chloride]; conditions: in DMSO
# Procedure: as §1
# [7] = compound: NC(=O)C(F)(F)C(F)(F)C(F)(F)C(F)(F)F [Nonafluoropentanamide]; conditions: in DMSO
# Procedure: as §1
# [8] = compound: FC(F)(F)C(F)(F)C(F)(F)CC1CO1 [1H,1H-Heptafluorobutyl epoxide]; conditions: in DMSO
# Procedure: as §1
# [9] = compound: O=S(=O)(F)C(F)(F)C(F)(F)C(F)(F)C(F)(F)C(F)(F)C(F)(F)C(F)(F)C(F)(F)F [Perfluorooctanesulfonyl fluoride]; conditions: in DMSO
# Procedure: as §1
# [10] = compound: FC(F)(F)C(F)(F)C(F)(F)CI [Heptafluorobutyl iodide]; conditions: in DMSO
# Procedure: as §1
# [11] = compound: NC(=O)C(F)(F)C(F)(F)C(F)(F)C(F)F; conditions: in DMSO
# Procedure: as §1
# [12] = compound: OCC(F)(F)C(F)(F)C(F)(F)CO [Hexafluoroamylene glycol]; conditions: in DMSO
# Procedure: as §1
# [13] = compound: FC(F)(F)C(F)(F)C(F)(F)C(F)(F)C(F)(F)C(F)(F)C(F)(F)I [1-Iodopentadecafluoroheptane]; conditions: in DMSO
# Procedure: as §1
# [14] = compound: O=C(O)C=CC(F)(C(F)(F)F)C(F)(F)F [3-(Perfluoroisopropyl)-2-propenoic acid]; conditions: in DMSO
# Procedure: as §1
# [15] = compound: FC(F)(F)C(F)(F)CNCC(F)(F)C(F)(F)F [Bis(1H,1H-perfluoropropyl)amine]; conditions: in DMSO
# Procedure: as §1
# [16] = compound: O=S(=O)(O)CCC(F)(F)C(F)(F)C(F)(F)C(F)(F)C(F)(F)C(F)(F)F [6:2 Fluorotelomer sulfonic acid]; conditions: in DMSO
# Procedure: as §1
# [17] = compound: C=CC(=O)OCC(F)(F)C(F)(F)C(F)(F)COC(=O)C=C [1H,1H,5H,5H-Perfluoro-1,5-pentanediol diacrylate]; conditions: 6700 nM; in DMSO
# Procedure: as §1
# [18] = compound: NS(=O)(=O)C(F)(F)C(F)(F)C(F)(F)C(F)(F)C(F)(F)C(F)(F)F [Perfluorohexanesulfonamide]; conditions: in DMSO
# Procedure: as §1
# [19] = compound: COC(=O)C(F)(F)C(F)(F)OC(F)(C(F)(F)F)C(F)(F)OC(F)=C(F)F [Methyl perfluoro(3-(1-ethenyloxypropan-2-yloxy)propanoate)]; conditions: in DMSO
# Procedure: as §1
test system,measurement,setting,value
HDF3CGF:M-CSF,level (log10),[1]; 6700 nM,-0.0345 ± 0.005
same,level (log10),[1]; 20000 nM,-0.108 ± 0.029
same,level (log10),[2]; 1500 nM,0.0325 ± 0.0078
same,level (log10),[2]; 4400 nM,0.009 ± 0.018
same,level (log10),[2]; 13000 nM,0.037 ± 0.035
same,level (log10),[2]; 40000 nM,0.0405 ± 0.0035
same,level (log10),[3]; 6700 nM,0 ± 0.014
same,level (log10),[3]; 20000 nM,-0.002 ± 0.0042
same,level (log10),[3]; 60000 nM,-0.019 ± 0.0085
same,level (log10),[4]; 6700 nM,-0.02 ± 0.0057
same,level (log10),[4]; 20000 nM,-0.022 ± 0.0099
same,level (log10),[4]; 60000 nM,-0.029 ± 0.0028
same,level (log10),[5]; 6700 nM,-0.017 ± 0.054
same,level (log10),[5]; 20000 nM,-0.0215 ± 0.073
same,level (log10),[5]; 60000 nM,0.023 ± 0.0028
same,level (log10),[6]; 6700 nM,-0.0065 ± 0.016
same,level (log10),[6]; 20000 nM,0.0245 ± 0.021
same,level (log10),[6]; 60000 nM,0.0195 ± 0.011
same,level (log10),[7]; 6700 nM,-0.006 ± 0.017
same,level (log10),[7]; 20000 nM,0.01 ± 0.0014
same,level (log10),[7]; 60000 nM,0.0095 ± 0.021
same,level (log10),[8]; 6700 nM,-0.017 ± 0.064
same,level (log10),[8]; 20000 nM,-0.029 ± 0.044
same,level (log10),[8]; 60000 nM,-0.0245 ± 0.0092
same,level (log10),[9]; 6700 nM,0.0175 ± 0.005
same,level (log10),[9]; 20000 nM,0.0015 ± 0.0078
same,level (log10),[9]; 60000 nM,-0.013 ± 0.058
same,level (log10),[10]; 6700 nM,-0.0665 ± 0.063
same,level (log10),[10]; 20000 nM,-0.065 ± 0.023
same,level (log10),[10]; 60000 nM,-0.07 ± 0.027
same,level (log10),[11]; 6700 nM,-0.0065 ± 0.0078
same,level (log10),[11]; 20000 nM,-0.008 ± 0.0014
same,level (log10),[11]; 60000 nM,0.017 ± 0.031
same,level (log10),[12]; 6700 nM,-0.014 ± 0.02
same,level (log10),[12]; 20000 nM,-0.0235 ± 0.066
same,level (log10),[12]; 60000 nM,-0.0495 ± 0.077
same,level (log10),[13]; 6700 nM,-0.0165 ± 0.018
same,level (log10),[13]; 20000 nM,-0.0165 ± 0.0064
same,level (log10),[14]; 6700 nM,-0.0005 ± 0.0021
same,level (log10),[14]; 20000 nM,0.001 ± 0.0028
same,level (log10),[14]; 60000 nM,0 ± 0.0057
same,level (log10),[15]; 6700 nM,-0.0125 ± 0.025
same,level (log10),[15]; 20000 nM,-0.018 ± 0.031
same,level (log10),[15]; 60000 nM,-0.029 ± 0.069
same,level (log10),[16]; 6700 nM,-0.0255 ± 0.073
same,level (log10),[16]; 20000 nM,-0.044 ± 0.068
same,level (log10),[16]; 60000 nM,-0.082 ± 0.085
same,level (log10),[17],-0.482 ± 0.027
same,level (log10),[18]; 6700 nM,0.0285 ± 0.037
same,level (log10),[18]; 20000 nM,0.0395 ± 0.035
same,level (log10),[18]; 60000 nM,-0.065 ± 0.038
same,level (log10),[19]; 6700 nM,0.031 ± 0.058
same,level (log10),[19]; 20000 nM,-0.074 ± 0.069
BT:sIL-6,level (log10),[1]; 6700 nM,-0.033 ± 0.034
same,level (log10),[1]; 20000 nM,-0.0465 ± 0.046
same,level (log10),[2]; 1500 nM,0 ± 0.031
same,level (log10),[2]; 4400 nM,-0.0045 ± 0.026
same,level (log10),[2]; 13000 nM,-0.036 ± 0.1
same,level (log10),[2]; 40000 nM,-0.0235 ± 0.05
same,level (log10),[3]; 6700 nM,0.007 ± 0.079
same,level (log10),[3]; 20000 nM,0.014 ± 0.025
same,level (log10),[3]; 60000 nM,-0.019 ± 0.02
same,level (log10),[4]; 6700 nM,0.017 ± 0.014
same,level (log10),[4]; 20000 nM,0.059 ± 0.017
same,level (log10),[4]; 60000 nM,-0.004 ± 0.089
same,level (log10),[5]; 6700 nM,0.0215 ± 0.037
same,level (log10),[5]; 20000 nM,0.024 ± 0.0057
same,level (log10),[5]; 60000 nM,0.0065 ± 0.016
same,level (log10),[6]; 6700 nM,0.0135 ± 0.016
same,level (log10),[6]; 20000 nM,0.043 ± 0.025
same,level (log10),[6]; 60000 nM,0.0195 ± 0.033
same,level (log10),[7]; 6700 nM,-0.0015 ± 0.039
same,level (log10),[7]; 20000 nM,-0.0035 ± 0.036
same,level (log10),[7]; 60000 nM,-0.0665 ± 0.03
same,level (log10),[8]; 6700 nM,0.002 ± 0.0014
same,level (log10),[8]; 20000 nM,-0.023 ± 0.042
same,level (log10),[8]; 60000 nM,-0.0725 ± 0.071
same,level (log10),[9]; 6700 nM,-0.055 ± 0.037
same,level (log10),[9]; 20000 nM,-0.021 ± 0.047
same,level (log10),[9]; 60000 nM,-0.037 ± 0.048
same,level (log10),[10]; 6700 nM,0.0525 ± 0.0092
same,level (log10),[10]; 20000 nM,0.0485 ± 0.0035
same,level (log10),[10]; 60000 nM,0.003 ± 0.014
same,level (log10),[11]; 6700 nM,0.0315 ± 0.074
same,level (log10),[11]; 20000 nM,-0.0335 ± 0.023
same,level (log10),[11]; 60000 nM,-0.0795 ± 0.11
same,level (log10),[12]; 6700 nM,0.0575 ± 0.0078
same,level (log10),[12]; 20000 nM,0.015 ± 0.031
same,level (log10),[12]; 60000 nM,0.014 ± 0.021
same,level (log10),[13]; 6700 nM,-0.0825 ± 0.0078
same,level (log10),[13]; 20000 nM,0.024 ± 0.044
same,level (log10),[14]; 6700 nM,0.032 ± 0.089
same,level (log10),[14]; 20000 nM,-0.0455 ± 0.056
same,level (log10),[14]; 60000 nM,-0.025 ± 0.03
same,level (log10),[15]; 6700 nM,0.0285 ± 0.0064
same,level (log10),[15]; 20000 nM,0.02 ± 0.013
same,level (log10),[15]; 60000 nM,0.0245 ± 0.011
same,level (log10),[16]; 6700 nM,0.0255 ± 0.039
same,level (log10),[16]; 20000 nM,0.0375 ± 0.016
same,level (log10),[16]; 60000 nM,0.003 ± 0.052
same,level (log10),[17],-0.692 ± 0.031
same,level (log10),[18]; 6700 nM,0.013 ± 0.09
same,level (log10),[18]; 20000 nM,-0.0025 ± 0.061
same,level (log10),[18]; 60000 nM,-0.0455 ± 0.037
same,level (log10),[19]; 6700 nM,0.016 ± 0.024
same,level (log10),[19]; 20000 nM,0.0175 ± 0.047
